Experimental data: US20070238700A1, “N-PHENYL-1,1,1-TRIFLUOROMETHANESULFONAMIDE HYDRAZONE DERIVATIVE COMPOUNDS AND THEIR USAGE IN CONTROLLING PARASITES” (priority 2006, published 2007)
Read-outs that look alike come from different tables or passages of the source.

Tested on: Ctenocephalides felis
Description: b) Ctenocephalides felis Adulticide Assay: C. felis Single Dose Screen
Mortality of fleas was the primary endpoint in the assay. Fleas were considered dead if they didn't move or were on their sides and unable to walk or right themselves. […] The concentration chosen (1.26 μg/cm^2) was higher than that known to kill 90% of cat fleas (LC90) using the reference compound, permethrin.
The test species was the cat flea (Ctenocephalides felis). The strain used was obtained from external suppliers as pupae and held in the laboratory under testing conditions until the adults had emerged. Fifteen (15) fleas were used in a minimum of four replicates against a single concentration level (approximately 60 fleas). The insects were selected to be in the adult life stage, aged between 3 and 7 days post emergence.
The compounds to be tested were supplied as solids and were prepared in acetone as described below prior to testing. Samples were stored in a refrigerator (5±1° C.) unless otherwise specified.
During the mortality testing, the temperature was maintained at 25±1° C. Humidity was maintained at 75±5%. The base (area=159 mm^2) of a 100 mL glass Erlenmeyer (conical) flask provided the treatment surface. Flasks were pretreated with Coatasil™ glass treatment to maximise bio-availability of test compounds by preventing them from binding to glass the surface. The base of the 100 mL Erlenmeyer flask was treated with 0.5 mL of test sample in acetone and gently swirled. This volume was sufficient to cover the base of the flask. Flasks were left to dry for 24 hours before flea exposure.
Adult cat fleas were placed into a sorting chamber, which allowed fleas to jump into the Erlenmeyer flasks. Fifteen (15) adult cat fleas were collected in each flask. The top of the flasks were then covered in Parafilm™ and small holes were made to allow gas exchange. A 0.5 mL volume of acetone as a solvent control was applied to the base of an Erlenmeyer flask and the testing proceeded in the same manner described above. Cat fleas in the treatment containers were held under testing conditions for 8, 24 and/or 48 hours. Mortality was recorded at 8, 24, 8 and 24, or 24 and 48 hours Pooled 8, 24, 8 and 24, and 24 and 48 hour mortality data were converted to percentages and are summarized by Table 21, below.

With `CN(N=C1CCc2cccc(NS(=O)(=O)C(F)(F)F)c21)c1ccccc1` [Compound 205] the “C. felis Mortality (%) 8 h” value (8 h, data from laboratory 1) was 12% and the “C. felis Mortality (%) 24 h” value (24 h, data from laboratory 1) was 13%.

With `CC(=NN(C)c1cnccn1)c1cc(Cl)ccc1NS(=O)(=O)C(F)(F)F` [Compound 206] the “C. felis Mortality (%) 8 h” value was 7% and the “C. felis Mortality (%) 24 h” value was 12%.

For `C/C(=N\NC(=O)Nc1ccc(OC(F)(F)F)cc1)c1cc(Cl)ccc1NS(=O)(=O)C(F)(F)F` [Compound 207], the “C. felis Mortality (%) 8 h” value (8 h, data from laboratory 1) was 5% and the “C. felis Mortality (%) 24 h” value (24 h, data from laboratory 1) was 8%.

In the case of `C/C(=N\NC(=O)Nc1ccc(C(F)(F)F)cc1)c1cc(Cl)ccc1NS(=O)(=O)C(F)(F)F` [Compound 208], the “C. felis Mortality (%) 8 h” value (8 h, data from laboratory 1) is reported as 8% and the “C. felis Mortality (%) 24 h” value (24 h, data from laboratory 1) is reported as 18%.

With `C/C(=N\N(C)c1nccc2ccccc12)c1cc(Cl)ccc1NS(=O)(=O)C(F)(F)F` [Compound 209] the “C. felis Mortality (%) 8 h” value (8 h, data from laboratory 1) was 7% and the “C. felis Mortality (%) 24 h” value (24 h, data from laboratory 1) was 18%.

In the case of `C/C(=N\N(C)c1cnc2ccccc2n1)c1cc(Cl)ccc1NS(=O)(=O)C(F)(F)F` [Compound 210], the “C. felis Mortality (%) 8 h” value (8 h, data from laboratory 1) is reported as 4% and the “C. felis Mortality (%) 24 h” value (24 h, data from laboratory 1) is reported as 17%.

`CCN(N=C(C)c1cc(Cl)ccc1NS(=O)(=O)C(F)(F)F)C1CCCC1` [Compound 212] was tested, and the “C. felis Mortality (%) 8 h” value was 7% and the “C. felis Mortality (%) 24 h” value was 59%.

`CCC(=NN(CC)C1CCCC1)c1cc(Cl)ccc1NS(=O)(=O)C(F)(F)F` [Compound 214] was tested, and the “C. felis Mortality (%) 8 h” value (8 h, data from laboratory 1) was 7% and the “C. felis Mortality (%) 24 h” value (24 h, data from laboratory 1) was 61%.

For `CCN(N=C(C)c1cc(Cl)ccc1NS(=O)(=O)C(F)(F)F)C1CCCCC1` [Compound 216], the “C. felis Mortality (%) 8 h” value (8 h, data from laboratory 1) was 0% and the “C. felis Mortality (%) 24 h” value (24 h, data from laboratory 1) was 52%.

For `CC/C(=N\N(C)C1CCCCC1)c1cc(Cl)ccc1NS(=O)(=O)C(F)(F)F` [Compound 217], the “C. felis Mortality (%) 8 h” value (8 h, data from laboratory 1) was 3% and the “C. felis Mortality (%) 24 h” value (24 h, data from laboratory 1) was 48%.

For `CCC(=NN(CC)C1CCCCC1)c1cc(Cl)ccc1NS(=O)(=O)C(F)(F)F` [Compound 218], the “C. felis Mortality (%) 8 h” value (8 h, data from laboratory 1) was 5% and the “C. felis Mortality (%) 24 h” value (24 h, data from laboratory 1) was 62%.

In the case of `CN(N=C1CCCc2cccc(NS(=O)(=O)C(F)(F)F)c21)c1ccccc1` [Compound 219, N-[8-(N′-methyl-N′-phenyl)hydrazono-5,6,7,8-tetrahydro-naphthalen-1-yl]-trifluoromethanesulfonamide], the “C. felis Mortality (%) 8 h” value is reported as 0% and the “C. felis Mortality (%) 24 h” value is reported as 2%.

For `CCC(=O)N(CCC#N)/N=C(\C)c1cc(Cl)ccc1NS(=O)(=O)C(F)(F)F` [Compound 225], the “C. felis Mortality (%) 8 h” value (8 h, data from laboratory 1) was 2% and the “C. felis Mortality (%) 24 h” value (24 h, data from laboratory 1) was 73%.

With `O=S(=O)(Nc1ccc(Cl)cc1C1=NN(c2ccccc2)CC1)C(F)(F)F` [Compound 226] the “C. felis Mortality (%) 8 h” value (8 h, data from laboratory 1) was 0% and the “C. felis Mortality (%) 24 h” value (24 h, data from laboratory 1) was 28%.

For `O=S(=O)(Nc1ccc(Cl)cc1C1=NN(c2ccccc2F)CC1)C(F)(F)F` [Compound 228], the “C. felis Mortality (%) 8 h” value (8 h, data from laboratory 1) was 14% and the “C. felis Mortality (%) 24 h” value (24 h, data from laboratory 1) was 59%.

`O=S(=O)(Nc1ccc(Cl)cc1C1=NN(c2ccccc2)CC1)C(F)(F)F` [Compound 229, N-[4-Chloro-2-(1-phenyl-4,5-dihydro-1H-pyrazol-3-yl)-phenyl]-trifluoromethanesulfonamide] was tested, and the “C. felis Mortality (%) 8 h” value (8 h) was 18% and the “C. felis Mortality (%) 24 h” value (24 h) was 37%.

With `O=S(=O)(Nc1ccc(Cl)cc1-c1ccn(-c2ccccc2)n1)C(F)(F)F` [Compound 230, N-[4-Chloro-2-[1-phenyl-1H-pyrazol-3-yl]-phenyl]-trifluoromethanesulfonamide] the “C. felis Mortality (%) 8 h” value (8 h) was 10% and the “C. felis Mortality (%) 24 h” value (24 h) was 43%.

`O=S(=O)(Nc1ccc(Cl)cc1C1=NN(c2cccc(Cl)c2)CC1)C(F)(F)F` [Compound 231] was tested, and the “C. felis Mortality (%) 8 h” value (8 h, data from laboratory 1) was 12% and the “C. felis Mortality (%) 24 h” value (24 h, data from laboratory 1) was 42%.

For `O=S(=O)(Nc1ccc(Cl)cc1C1=NN(c2cccc(F)c2)CC1)C(F)(F)F` [Compound 232], the “C. felis Mortality (%) 8 h” value (8 h, data from laboratory 1) was 7% and the “C. felis Mortality (%) 24 h” value (24 h, data from laboratory 1) was 27%.

In the case of `O=S(=O)(Nc1ccc(Cl)cc1C1=NN(c2ccc(F)cc2)CC1)C(F)(F)F` [Compound 233], the “C. felis Mortality (%) 8 h” value (8 h, data from laboratory 1) is reported as 9% and the “C. felis Mortality (%) 24 h” value (24 h, data from laboratory 1) is reported as 28%.

In the case of `O=S(=O)(Nc1ccc(Cl)cc1C1=NN(c2ccc(Cl)cc2)CC1)C(F)(F)F` [Compound 234], the “C. felis Mortality (%) 8 h” value (8 h, data from laboratory 1) is reported as 14% and the “C. felis Mortality (%) 24 h” value (24 h, data from laboratory 1) is reported as 41%.
